The source of these data is US9826740B2, “Synergistic fungicidal compositions and methods of use” (ZELAM LIMITED, priority 2010, dated 2017).

Several values for one entry are separate records, joined by “and”; a condition that tells them apart may be missing. Equal values may be shown once. Read-outs that look alike come from different tables or passages of the source. Bounds are passed on as bounds.

The test system of data set [1] is Tyromyces palustris (Brown rot). In words: Malt extract agar plate growth inhibition. Type of data set: cell-based. The settings on record: Example 5, 4 days growth. As for the experimental part:
(§1) The end points used were EC90 or EC50, the concentration producing 90% or 50% inhibition of growth or weight loss resulting from fungal growth. EC values were calculated by regression analysis of dose response data using the GraphPad Prism software package (GraphPad Software, Inc., 5755 Oberlin Drive #110, San Diego, Calif. 92121, USA). EC90 values are expressed in ppm and EC50 values are expressed in gai/m^3. […]
(§2) Further EC90 values were determined for this example in a standard manner.

For data set [2], the system named is Gloeophyllum abietinum (Brown rot). The data set can be described thus: Malt extract agar plate growth inhibition. Type of data set: cell-based. The following applies: Example 5, 7 days growth. As to the method:
as §1, §2

Data set [3] has as its system Poria placenta (Brown rot). The data set can be described thus: Malt extract agar plate growth inhibition. It counts as cell-based. As to the method: as §1, §2
For data set [4], the system named is Serpula lacrymans (Dry rot). The data set can be described thus: Malt extract agar plate growth inhibition. It counts as cell-based. As for the experimental part: as §1, §2
The test system of data set [5] is Pycnoporus coccineus (White rot). In words: Malt extract agar plate growth inhibition. Type of data set: cell-based. As for the experimental part:
as §1, §2

Data set [6] deals with Tyromyces palustris. The data set can be described thus: Rot jar test of glueline treated Pinus radiata plywood (AWPC 2007). As to the method:
(§3) Efficacy as a glueline fungicide was tested in plywood manufactured with phenol formaldehyde (PF), a typical resin used in engineered wood products. The wood type was Pinus radiata sapwood, which, like many softwoods, is rapidly degraded by decay organisms, if not protected. Five 3.2 mm rotary-peeled veneers were laid up with fungicide-containing PF resin at a typical commercial glue spread rate (250 g/m^2), cold pressed for 10 minutes then hot pressed for 12 minutes at 135° C. and […]. Test specimens (25 mm×25 mm×16 mm) were cut, then leached for 14 days according to EN 84 before conducting a three month “rot jar test” as specified by the Australasian Wood Preservation Committee (Laboratory Decay Test for Hazard Classes H3, H4 and H5, AWPC, 2007). Untreated controls contained no fungicide.
Plywood was manufactured following the procedure in Example 7 using triadimefon and triadimenol as the glueline fungicides and tested by the rot jar method after leaching. […]

The subject of data set [7] is Coniophora puteana. The data set is described as above. The following applies: Example 10, glueline rate giving 50% inhibition of weight loss, regression. As for the experimental part: (§4) The end points used were EC90 or EC50, the concentration producing 90% or 50% inhibition of growth or weight loss resulting from fungal growth. EC values were calculated by regression analysis of dose response data using the GraphPad Prism software package (GraphPad Software, Inc., 5755 Oberlin Drive #110, San Diego, Calif. 92121, USA). EC90 values are expressed in ppm and EC50 values are expressed in gai/m^3.
Efficacy as a glueline fungicide was tested in plywood manufactured with phenol formaldehyde (PF), a typical resin used in engineered wood products. The wood type was Pinus radiata sapwood, which, like many softwoods, is rapidly degraded by decay organisms, if not protected. […]
(§5) In order to examine the interaction between triadimefon and cyproconazole in the glueline a synergy trial was performed using plywood manufactured with fungicide-supplemented PF resin and the rot jar method described above. Six glueline rates (expressed as gai/m^3) of triadimefon alone, cyproconazole alone, triadimefon+cyproconazole (10:1) and triadimefon+cyproconazole (6:1) were used to establish EC50 values by regression analysis. Synergy was determined by the Wadley method as described above using the EC50 values. […]

The subject of data set [8] is Fomitopsis lilacino-gilva. Described as above. The settings on record: for EC50(obs): Example 9, glueline rate giving 50% inhibition of weight loss, six rates, regression. As to the method:
as §4, §3
(§6) Plywood was manufactured following the procedure in Example 7 using triadimefon and triadimenol as the glueline fungicides and tested by the rot jar method after leaching.
(§7) In order to examine the interaction between triadimefon and cyproconazole in the glueline a synergy trial was performed using plywood manufactured with fungicide-supplemented PF resin and the rot jar method described above. Six glueline rates (expressed as gai/m^3) of triadimefon alone, cyproconazole alone, triadimefon+cyproconazole (10:1) and triadimefon+cyproconazole (6:1) were used to establish EC50 values by regression analysis. Synergy was determined by the Wadley method as described above using the EC50 values.
(§8) Plywood 29 mm thick was manufactured from seven 4.3 mm rotary peeled Pinus radiata sapwood veneers using PF resin supplemented with various rates of triadimefon plus cyproconazole at a 10:1 ratio. […] The finished plywood was then sprayed with the same mixtures to cover the top and bottom faces of the plywood. Test specimens (25 mm×25 mm×29 mm) were cut, leached and tested by the rot jar method as described in Example 7.

In data set [9] the test system is Antrodia xantha. Described as above. The settings on record: for EC50(obs): Example 9, glueline rate giving 50% inhibition of weight loss, six rates, regression; for Percentage weight loss: rot jar after leaching. As for the experimental part: as §4, §3, §6, §7, §8
Data set [10] concerns Serpula lacrymans. Described as above. The settings on record: for Percentage weight loss: leached, three month rot jar; for EC50(obs): Example 9, glueline rate giving 50% inhibition of weight loss, six rates, regression. As for the experimental part:
as §4, §3, §5

For data set [11] the following is noted: cited from earlier work.
Data set [12] has as its system Antrodia xantha (Brown rot). The data set can be described thus: Malt extract agar plate growth inhibition. It counts as cell-based. As for the experimental part:
as §1

The test system of data set [13] is Coniophora puteana (Brown rot). In words: Malt extract agar plate growth inhibition. Type of data set: cell-based. The following applies: Example 6, 8 days growth. As for the experimental part: as §1
In data set [14] the test system is Trametes versicolor (White rot). In words: Malt extract agar plate growth inhibition. Type of data set: cell-based. The following applies: Example 4, 5 days at 25° C. As to the method:
as §4
(§9) Decay fungi were grown on malt extract agar plates for 5 days at 25° C. in the presence of triadimefon alone or triadimenol alone (A), cyproconazole alone (B), and the pairs of mixtures shown in Table 2.

In data set [15] the test system is Fomitopsis lilacino-gilva (Brown rot). In words: Malt extract agar plate growth inhibition. Type of data set: cell-based. The settings on record: Example 4, 5 days at 25° C. As for the experimental part:
as §4, §9

The conditions of data set [16]: cited from earlier work. This is another data set of the same source.
For data set [17] the following is noted: 20° C.; cited from earlier work.
For data set [18] the following is noted: cited from earlier work. The source holds these as a separate data set.
Data set [19] deals with human and yeast CYP51 (lanosterol-14α-demethylase). The following applies: cited from earlier work.
Setting [20] is: Example 7, glueline 62.5 gai/m3, PF plywood, leached, three month rot jar.
[21] abbreviates: Example 7, glueline 125 gai/m3, PF plywood, leached, three month rot jar.
Where [22] appears, read: Example 7, glueline 250 gai/m3, PF plywood, leached, three month rot jar.
Setting [23] is: Example 7, glueline 500 gai/m3, PF plywood, leached, three month rot jar.
The mark [24] stands for this setting: Example 7, glueline 62.5 gai/m3, PF plywood.
Setting [25] is: Example 7, glueline 125 gai/m3, PF plywood.
Setting [26] is: Example 7, glueline 250 gai/m3, PF plywood.
Where [27] appears, read: Example 7, glueline 500 gai/m3, PF plywood.
Setting [28] is: Example 8, glueline 250 gai/m3, PF plywood, rot jar after leaching.
Setting [29] is: Example 8, glueline 500 gai/m3, PF plywood, rot jar after leaching.
Where [30] appears, read: Example 8, glueline 1000 gai/m3, PF plywood, rot jar after leaching.
Where [31] appears, read: Example 8, glueline 2000 gai/m3, PF plywood, rot jar after leaching.
[32] abbreviates: in words, temperature not given.

As for `CC(C1CC1)C(O)(Cn1cncn1)c1ccc(Cl)cc1` (racemic) [Cyproconazole], the “EC90(obs)” value was determined as 0.68 ppm in [1]; 0.25 ppm in data set [2]; 0.92 ppm in data set [3] (Example 5, 5 days growth); 0.36 ppm in data set [3] (Example 6, 6 days growth); 1.60 ppm in data set [4] (Example 5, 5 days growth); 1.32 ppm in data set [4] (Example 6, 8 days growth). In addition, the “EC90(obs)” value in [5] (Example 5, 4 days growth) was 0.17 ppm; in data set [5] (Example 6, 6 days growth), 0.14 ppm; in data set [12] (Example 4, 5 days at 25° C.) it was 0.19 ppm; in data set [12] (Example 6, 8 days growth) it was 0.46 ppm; in [13] it was 1.93 ppm; in [14], 0.30 ppm and 0.19 ppm. Besides, the “EC90(obs)” value in data set [15] is given as 0.12 ppm. The Percentage weight loss in [6] (setting [20]) was determined as 25.0%; in data set [6] (setting [21]), 16.0%; in [6] (setting [22]), 17.1%; in [6] (setting [23]), 4.3%; in [8] (setting [20]) it was 7.6%; in data set [8] (setting [21]), 4.1%. Further, the Percentage weight loss in data set [8] (setting [22]) was found to be 2.7%; in data set [8] (setting [23]), 0.8%; in [10] (setting [24]), 38.0%; in data set [10] (setting [25]) it was 38.0%; in data set [10] (setting [26]), 37.9%; in data set [10] (setting [27]) it was 29.6%. The “EC50(obs)” value amounted to 345 gai/m^3 in [7], 10 gai/m^3 in data set [8], 84 gai/m^3 in data set [9] and 465 gai/m^3 in data set [10]. In addition, the Stability in water entry in data set [11] (pH 1) was “Stable in water 35 d”.
As to `CC(C)(C)C(O)(CCc1ccc(Cl)cc1)Cn1cncn1` (racemic) [Tebuconazole], in [16] (20° C.), the “Sol. DCM” value is listed as >200 g/L (20° C.), the Sol. hexane is <0.1 g/L (20° C.) and the Sol. toluene is listed as 50-100 g/L (20° C.). Moreover, in [11] (pH 4-9), the “Stability, hydrolysis DT50” value is “DT50 >1 y pH 4-9”. For the same compound, in data set [17], the “Sol. Water” value was 36 mg/L (20° C.).
As for `CC(C)(C)C(=O)C(Oc1ccc(Cl)cc1)n1cncn1` (racemic) [Triadimefon], the “EC90(obs)” value in data set [1] was determined as 4.48 ppm; in [2], 17.2 ppm; in [3] (Example 5, 5 days growth) it was 0.82 ppm; in [3] (Example 6, 6 days growth), 1.08 ppm; in data set [4] (Example 5, 5 days growth), 26.4 ppm; in data set [4] (Example 6, 8 days growth), 26.3 ppm. For the same compound, the “EC90(obs)” value in data set [5] (Example 5, 4 days growth) worked out at 0.34 ppm; in [5] (Example 6, 6 days growth), 0.70 ppm; in data set [12] (Example 4, 5 days at 25° C.), 2.56 ppm; in data set [12] (Example 6, 8 days growth) it was 2.52 ppm; in data set [13], 27.4 ppm; in data set [14], 1.52 ppm. The “EC90(obs)” value in data set [15] came to 1.48 ppm. Besides, the “Sol. DCM” value in data set [16] (20° C.) is on record as >200 g/L (20° C.). In data set [16] (20° C.), the Sol. hexane was 6.3 g/L (20° C.). For the same compound, in data set [16] (20° C.), the Sol. toluene is listed as >200 g/L (20° C.). For the same compound, the Percentage weight loss in [6] (setting [20]) stood at 28.7%; in data set [6] (setting [21]) it was 29.2%; in data set [6] (setting [22]) it was 16.5%; in data set [6] (setting [23]), 7.6%; in data set [6] (setting [28]), 14.2%; in [6] (setting [29]), 10.7%. Besides, the Percentage weight loss in data set [6] (setting [30]) is on record as 2.0%; in data set [6] (setting [31]) it was 0.4%; in [8] (setting [20]), 17.8%; in data set [8] (setting [21]), 16.7%; in data set [8] (setting [22]), 10.3%; in [8] (setting [23]) it was 8.2%. Moreover, the Percentage weight loss in [8] (setting [28]) is given as 19.1%; in data set [8] (setting [29]), 13.8%; in data set [8] (setting [30]), 5.1%; in data set [8] (setting [31]), 3.6%; in [9] (Example 8, glueline 250 gai/m3, PF plywood), 29.4%; in [9] (Example 8, glueline 500 gai/m3, PF plywood), 20.3%. Besides, the Percentage weight loss in data set [9] (Example 8, glueline 1000 gai/m3, PF plywood) was 12.5%; in data set [9] (Example 8, glueline 2000 gai/m3, PF plywood), 6.1%; in data set [10] (setting [24]), 42.4%; in data set [10] (setting [25]) it was 43.8%; in data set [10] (setting [26]), 42.2%; in data set [10] (setting [27]), 44.9%. The “EC50(obs)” value in data set [7] came to 2591144 gai/m^3; in data set [8], 121 gai/m^3; in data set [9] it was 248 gai/m^3; in data set [10], 14328 gai/m^3. Further, in data set [11] (pH 4,7,9), the “Stability, hydrolysis DT50” value is given as “DT50 >1 y pH 4,7,9”. Moreover, the “Sol. Water” value in [17] is 64 mg/L (20° C.). In data set [18], the “Kow (log P)” value is given as 3.11.
Regarding Propiconazole, the Sol. hexane in data set [16] (25° C.) is given as 47 g/L (25° C.). In data set [16] (setting [32]), the “Sol. DCM” value is “Completely misc” and the Sol. toluene entry is “Completely misc”. Besides, in [17], the “Sol. Water” value is recorded as 100 mg/L (20°). Further, the “relative selectivity for the fungal enzyme (in words)” value in [19] (based on the IC50 ratio human/yeast) is listed as “moderately selective”. Moreover, the “ratio of IC50 values (human/yeast) against CYP51” value in data set [19] (human CYP51 IC50 / yeast (Candida albicans) CYP51 IC50) is 55. The “Kow (log P)” value in [18] was 3.72.
